Values quoted from earlier work as cited in US11000479B2, “Injectable long-acting naltrexone microparticle compositions” (Chong Kun Dang Pharmaceutical Corp., priority 2018, dated 2021).

Tests used:
[1] = system: heroin/diamorphine effects
[2] = system: morphine induced analgesia; settings: rat model, hot-plate test

For O=C1CC[C@@]2(O)[C@H]3Cc4ccc(O)c5c4[C@@]2(CCN3CC2CC2)[C@H]1O5 [naltrexone], the “naltrexone level that completely antagonized heroin” value ([1]; 25 mg of heroin (Verebey et al. 1976)) is listed as 2.4 ng/mL, the “levels targeted as sufficient to offer protection from fatal opioid overdose” value ([1]; Hulse et al. 2005, Comer et al. 2002) is listed as 1 to 2 ng/mL and the “serum naltrexone level sufficient to block pure diamorphine” value ([1]; doses as high as 500 mg diamorphine, two patients (Brewer 2002)) is listed as 2.8 ng/mL. The “plasma naltrexone concentration shown to be effective” value [2] was 1 to 2 ng/mL.
